A short description of series [1]: Solubility evaluation in toluene. Type of series: physicochemical. The protocol: Solubility evaluation were performed at 25° C. using toluene as solvent.
Series [2] is described as follows: Glass transition temperature by DSC. Type of series: physicochemical. The protocol: The glass transition temperatures Tg were measured using a TA instruments 2920 DSC equipment and data evaluation were done with the TA Instruments Universal Analysis 2000 software.
(In DSC, transitions show as peaks or steps in heat flow.)

Where two headings read alike, the source gives them in different places.

On to [Ir(2-PhQ)2(DMC2)], for which the “Toluene solubility S at 25° C.” value in series [1] is “S > 0.25 wt %”. For the molecule [Ir(n-hexPhQ)3] [reference compound], the Tg in series [2] was 54 °C. In the case of `[Ir+3].[c-]1ccccc1-c1ccc2ccccc2n1.[c-]1ccccc1-c1ccc2ccccc2n1.[c-]1ccccc1-c1ccc2ccccc2n1` [[Ir(2-PhQ)3], reference compound], the “Toluene solubility S at 25° C.” value is “S < 0.02 wt %” in series [1] and less than 0.02 wt % in series [1] (listed as Ir(2-PhQ)3).
